Measured values: PubChem BioAssay AID248 (DTP/NCI, 2004)
Where “and” joins values, the source holds several entries; their conditions need not be identical. Identical values can stand only once. Inconclusive results and toxic doses are left out. Rule as the data show it: active = T/C of 150% or more; inactive = T/C below 125%.

Tested on: L1210 leukemia ip in BDF1 mice, survival T/C
Test: NCI In Vivo Anticancer Drug Screen. Data for tumor model L1210 Leukemia (intraperitoneal) in B6D2F1 (BDF1) mice
Details: endpoint: mean survival time, higher = longer survival
Summary of the method: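 Each compound was tested against a transplantable tumor grown in mice. The endpoint was survival, with treated animals benchmarked against vehicle controls as a simple ratio.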

[1] = dose: 100.0 mg/kg/injection, schedule: Q01DX001 (ip), vehicle: saline
[2] = dose: 200.0 mg/kg/injection, schedule: Q01DX001 (ip), vehicle: saline
[3] = dose: 400.0 mg/kg/injection, schedule: Q01DX001 (ip), vehicle: saline
[4] = dose: 100.0 mg/kg/injection, schedule: Q04DX003 (ip), vehicle: saline
[5] = dose: 200.0 mg/kg/injection, schedule: Q04DX003 (ip), vehicle: saline
[6] = dose: 400.0 mg/kg/injection, schedule: Q04DX003 (ip), vehicle: saline
[7] = dose: 100.0 mg/kg/injection, schedule: Q04DX003 (ip), vehicle: saline with Tween-80
[8] = dose: 200.0 mg/kg/injection, schedule: Q04DX003 (ip), vehicle: saline with Tween-80
[9] = dose: 100.0 mg/kg/injection, schedule: Q01DX001 (ip), vehicle: other
[10] = dose: 200.0 mg/kg/injection, schedule: Q01DX001 (ip), vehicle: other
[11] = dose: 400.0 mg/kg/injection, schedule: Q01DX001 (ip), vehicle: other
[12] = dose: 50.0 mg/kg/injection, schedule: Q01DX009 (ip), vehicle: saline
[13] = dose: 100.0 mg/kg/injection, schedule: Q01DX009 (ip), vehicle: saline
[14] = dose: 100.0 mg/kg/injection, schedule: Q04DX002 (ip), vehicle: saline
[15] = dose: 200.0 mg/kg/injection, schedule: Q01DX009 (ip), vehicle: saline
[16] = dose: 200.0 mg/kg/injection, schedule: Q04DX002 (ip), vehicle: saline
[17] = dose: 400.0 mg/kg/injection, schedule: Q04DX002 (ip), vehicle: saline
[18] = dose: 100.0 mg/kg/injection, schedule: Q01DX009 (ip), vehicle: Klucel (hydroxypropylcellulose) (HPC)
[19] = dose: 100.0 mg/kg/injection, schedule: Q04DX003 (ip), vehicle: Klucel (hydroxypropylcellulose) (HPC)
[20] = dose: 200.0 mg/kg/injection, schedule: Q01DX009 (ip), vehicle: Klucel (hydroxypropylcellulose) (HPC)
[21] = dose: 200.0 mg/kg/injection, schedule: Q04DX003 (ip), vehicle: Klucel (hydroxypropylcellulose) (HPC)
[22] = dose: 400.0 mg/kg/injection, schedule: Q01DX009 (ip), vehicle: Klucel (hydroxypropylcellulose) (HPC)
[23] = dose: 400.0 mg/kg/injection, schedule: Q04DX003 (ip), vehicle: Klucel (hydroxypropylcellulose) (HPC)
[24] = dose: 100.0 mg/kg/injection, schedule: Q01DX001 (ip), vehicle: carboxymethylcellulose (CMC)
[25] = dose: 200.0 mg/kg/injection, schedule: Q01DX001 (ip), vehicle: carboxymethylcellulose (CMC)
[26] = dose: 400.0 mg/kg/injection, schedule: Q01DX001 (ip), vehicle: carboxymethylcellulose (CMC)
[27] = dose: 12.5 mg/kg/injection, schedule: Q04DX003 (ip), vehicle: Klucel (hydroxypropylcellulose) (HPC)
[28] = dose: 25.0 mg/kg/injection, schedule: Q04DX003 (ip), vehicle: Klucel (hydroxypropylcellulose) (HPC)

Measured: T/C

CCSC1OC(C(COC(C)=O)OC(C)=O)C(OC(C)=O)C1NC(=O)OCc1ccccc1 (configuration not stated)
inactive: dose: 50.0 mg/kg/injection, schedule: Q01DX001 (ip), vehicle: saline 100 % of control | [1] 97 % of control | [2] 97 % of control | [3] 91 % of control

CC(=O)OCCN1CCC(n2ccc(=O)[nH]c2=O)C1=O (configuration not stated)
inactive: [4] 104 % of control | [5] 104 % of control | [6] 106 % of control

CC(=O)Oc1ccc(OC(C)=O)c([N+](=O)[O-])c1
inactive: [1] 103 % of control | [2] 102 % of control | [3] 103 % of control

NC(=S)N/N=C(\c1ccccc1)c1ccccn1
inactive: dose: 12.5 mg/kg/injection, schedule: Q01DX009 (ip), vehicle: gum acacia 101 % of control | dose: 25.0 mg/kg/injection, schedule: Q01DX001 (ip), vehicle: gum acacia 100 % of control | dose: 25.0 mg/kg/injection, schedule: Q01DX009 (ip), vehicle: gum acacia 95 % of control | dose: 25.0 mg/kg/injection, schedule: Q04DX003 (ip), vehicle: gum acacia 105 % of control | dose: 50.0 mg/kg/injection, schedule: Q01DX001 (ip), vehicle: gum acacia 106 % of control | dose: 50.0 mg/kg/injection, schedule: Q01DX009 (ip), vehicle: gum acacia 93 % of control | dose: 50.0 mg/kg/injection, schedule: Q04DX003 (ip), vehicle: gum acacia 100 % of control | dose: 100.0 mg/kg/injection, schedule: Q01DX001 (ip), vehicle: gum acacia 95 % of control

c1cnc2c3c(ccc2c1)CN(C12CC4CC(CC(C4)C1)C2)CO3
inactive: [7] 102 % of control | [8] 107 % of control

CCCCNC(=O)c1cccc2c1-c1ccccc1C2=O
inactive: [9] 88 % of control | [10] 88 % of control | [11] 96 % of control

CCN(CC)CCOB(OCCN(CC)CC)OCCN(CC)CC
inactive: [12] 95 % of control and 101 % of control | dose: 50.0 mg/kg/injection, schedule: Q04DX003 (ip), vehicle: saline 96 % of control | [13] 101 % of control and 110 % of control | [14] 101 % of control and 106 % of control | [4] 96 % of control | [15] 97 % of control and 103 % of control | [16] 101 % of control and 103 % of control | [5] 100 % of control | [17] 95 % of control

CN(C)c1ccc(Cc2ccc(N(C)C)cc2[N+](=O)[O-])cc1
inactive: [18] 102 % of control | [19] 96 % of control | [20] 93 % of control | [21] 96 % of control | [22] 95 % of control | [23] 101 % of control

Nc1ccc2c(c1)C(O)c1cc(N)c(Br)cc1-2 (configuration not stated)
inactive: [24] 103 % of control | [25] 110 % of control | [26] 103 % of control

CC[S][Pb]([c]1ccccc1)([c]1ccccc1)[c]1ccccc1
inactive: dose: 12.5 mg/kg/injection, schedule: Q04DX002 (ip), vehicle: Klucel (hydroxypropylcellulose) (HPC) 103 % of control

CC(=O)NN=C1CCC(=NNC(C)=O)CC1
inactive: [27] 97 % of control | [28] 94 % of control | dose: 50.0 mg/kg/injection, schedule: Q04DX003 (ip), vehicle: Klucel (hydroxypropylcellulose) (HPC) 108 % of control | [19] 110 % of control

CS(=O)(=O)c1ccc(N)cc1
inactive: dose: 6.25 mg/kg/injection, schedule: Q04DX003 (ip), vehicle: Klucel (hydroxypropylcellulose) (HPC) 99 % of control | [27] 95 % of control | [28] 95 % of control | dose: 50.0 mg/kg/injection, schedule: Q01DX009 (ip), vehicle: saline with Tween-80 100 % of control | [12] 93 % of control | dose: 100.0 mg/kg/injection, schedule: Q01DX009 (ip), vehicle: saline with Tween-80 92 % of control | [13] 87 % of control | dose: 200.0 mg/kg/injection, schedule: Q01DX009 (ip), vehicle: saline with Tween-80 92 % of control | [15] 93 % of control

CCCCCCCCCCCCCCCCCC(=O)N/N=C\c1ccc(O)c(OC)c1
inactive: [18] 95 % of control | [20] 90 % of control | [22] 88 % of control

CCCCCCCCC(=O)N1CCN(C)CC1
inactive: [14] 103 % of control

COC(=O)c1cc(NC(=O)Nc2cc([N+](=O)[O-])ccc2C)cc(C(=O)OC)c1
inactive: [14] 120 % of control | [16] 103 % of control | [17] 116 % of control

OCC1(CO)CCC1(CO)CO
inactive: dose: 75.0 mg/kg/injection, schedule: Q01DX001 (ip), vehicle: saline 106 % of control | dose: 75.0 mg/kg/injection, schedule: Q01DX009 (ip), vehicle: saline 105 % of control | dose: 150.0 mg/kg/injection, schedule: Q01DX001 (ip), vehicle: saline 102 % of control | dose: 150.0 mg/kg/injection, schedule: Q01DX009 (ip), vehicle: saline 105 % of control | dose: 300.0 mg/kg/injection, schedule: Q01DX001 (ip), vehicle: saline 98 % of control | dose: 300.0 mg/kg/injection, schedule: Q01DX009 (ip), vehicle: saline 97 % of control

O=C(O)C(O)COc1ccc(Cl)cc1Cl (configuration not stated)
inactive: [13] 92 % of control | [4] 93 % of control | [15] 107 % of control | dose: 400.0 mg/kg/injection, schedule: Q01DX009 (ip), vehicle: saline 102 % of control | [6] 102 % of control

CN(C)c1ccc(CNc2cccc([N+](=O)[O-])c2)cc1
inactive: dose: 100.0 mg/kg/injection, schedule: Q01DX001 (ip), vehicle: saline with Tween-80 96 % of control | dose: 200.0 mg/kg/injection, schedule: Q01DX001 (ip), vehicle: saline with Tween-80 90 % of control | dose: 400.0 mg/kg/injection, schedule: Q01DX001 (ip), vehicle: saline with Tween-80 95 % of control

C=CS(=O)(=O)c1ccc(N)cc1
inactive: [18] 103 % of control | [20] 95 % of control

C(=N\N1CCN(/N=C/c2ccccc2)C1c1ccccc1)/c1ccccc1
inactive: [19] 106 % of control | [21] 94 % of control | [23] 101 % of control

COC(=O)c1ccc(N(C)CCC(C)=O)cc1
inactive: [9] 97 % of control | [10] 95 % of control | [11] 106 % of control

CCCCCCCc1cc(O)c2c3c(c(=O)oc2c1)CCC(C)C3 (configuration not stated)
inactive: dose: 75.0 mg/kg/injection, schedule: Q04DX003 (ip), vehicle: Klucel (hydroxypropylcellulose) (HPC) 93 % of control | dose: 150.0 mg/kg/injection, schedule: Q04DX003 (ip), vehicle: Klucel (hydroxypropylcellulose) (HPC) 92 % of control | dose: 300.0 mg/kg/injection, schedule: Q04DX003 (ip), vehicle: Klucel (hydroxypropylcellulose) (HPC) 93 % of control

O=c1oc(-c2cc([N+](=O)[O-])ccc2Cl)nc2ccccc12
inactive: [7] 100 % of control | [8] 93 % of control

[CH3][Sn]1([CH3])[c]2ccccc2Oc2cccc[c]21
inactive: [9] 92 % of control | [10] 97 % of control | [11] 87 % of control

OC(c1cc2ccc(C(F)(F)F)cc2c2cc(C(F)(F)F)ccc12)C1CCCCN1 (configuration not stated)
inactive: dose: 12.5 mg/kg/injection, schedule: Q01DX009 (ip), vehicle: saline 93 % of control | dose: 25.0 mg/kg/injection, schedule: Q01DX009 (ip), vehicle: saline 103 % of control | [12] 108 % of control

COc1ccc2c(c1)CCC(=O)O2
inactive: dose: 50.0 mg/kg/injection, schedule: Q01DX001 (ip), vehicle: carboxymethylcellulose (CMC) 100 % of control | [24] 96 % of control | dose: 100.0 mg/kg/injection, schedule: Q04DX003 (ip), vehicle: saline sonified 102 % of control | [25] 100 % of control | dose: 200.0 mg/kg/injection, schedule: Q04DX003 (ip), vehicle: saline sonified 104 % of control | [26] 100 % of control | dose: 400.0 mg/kg/injection, schedule: Q04DX003 (ip), vehicle: saline sonified 102 % of control
